Data published in ChEMBL document CHEMBL1255345, “Efficacies of ceftobiprole medocaril and comparators in a rabbit model of osteomyelitis due to methicillin-resistant Staphylococcus aureus” (Antimicrob Agents Chemother, 2008).
In brackets after ≈: the same amount, converted by molar mass. Activity calls are given as the source filed them. No cut-off for these calls is given here.

How the values were obtained:
Staphylococcus aureus [1] = assay: Antimicrobial activity against Staphylococcus aureus 168-1 isolated from osteomyelitis patient by broth macrodilution method; format: functional
[2] = Cmax in New Zealand rabbit at 20 mg/kg, sc administered every 6 hrs for 4 days measured after 1 hr post first dose by RP-HPLC/MS/MS; format: ADME, organism-based, Oryctolagus cuniculus; set-up: dose 20 mg/kg, route subcutaneous; details: in vivo
[3] = Cmin in New Zealand rabbit at 20 mg/kg, sc administered every 6 hrs for 4 days measured after 1 hr post first dose by RP-HPLC/MS/MS; format: ADME, organism-based, Oryctolagus cuniculus; set-up: dose 20 mg/kg, route subcutaneous; details: New Zealand, in vivo, read-out: Cmin
[4] = AUC in New Zealand rabbit at 20 mg/kg, sc administered every 6 hrs for 4 days measured after 1 hr post first dose by RP-HPLC/MS/MS; format: ADME, organism-based, Oryctolagus cuniculus; set-up: time < 1 hr, dose 20 mg/kg, route subcutaneous; details: plasma
[5] = Cmax in New Zealand rabbit at 80 mg/kg, sc administered every 6 hrs for 4 days measured after 1 hr post first dose by RP-HPLC/MS/MS; format: ADME, organism-based, Oryctolagus cuniculus; set-up: dose 80 mg/kg, route subcutaneous; details: in vivo
[6] = AUC in New Zealand rabbit at 80 mg/kg, sc administered every 6 hrs for 4 days measured after 1 hr post first dose by RP-HPLC/MS/MS; format: ADME, organism-based, Oryctolagus cuniculus; set-up: time < 1 hr, dose 80 mg/kg, route subcutaneous; details: plasma
[7] = Cmax in New Zealand rabbit at 20 mg/kg, sc administered every 6 hrs for 4 days measured 16th dose by RP-HPLC/MS/MS; format: ADME, organism-based, Oryctolagus cuniculus; set-up: dose 20 mg/kg, route subcutaneous; details: in vivo
[8] = Cmax in New Zealand rabbit at 80 mg/kg, sc administered every 6 hrs for 4 days measured 16th dose by RP-HPLC/MS/MS; format: ADME, organism-based, Oryctolagus cuniculus; set-up: dose 80 mg/kg, route subcutaneous; details: in vivo
Oryctolagus cuniculus [9] = assay: Toxicity in methicillin-resistant Staphylococcus aureus-infected New Zealand rabbit osteomyelitis model assessed as body weight at 40 mg/kg, sc administered every 6 hrs for 4 days measured on week 2 postinfection (reference value: […] +/- […] kg); format: organism-based; details: in vivo
Oryctolagus cuniculus [10] = assay: Toxicity in methicillin-resistant Staphylococcus aureus-infected New Zealand rabbit osteomyelitis model assessed as body weight at 40 mg/kg, sc administered every 6 hrs for 4 days measured on week 4 postinfection (reference value: […] +/- […] kg); format: organism-based; details: in vivo
Oryctolagus cuniculus [11] = assay: Toxicity in methicillin-resistant Staphylococcus aureus-infected New Zealand rabbit osteomyelitis model assessed as body weight at 40 mg/kg, sc administered every 6 hrs for 4 days measured on week 6 postinfection (reference value: […] +/- […] kg); format: organism-based; details: in vivo
Oryctolagus cuniculus [12] = assay: Toxicity in methicillin-resistant Staphylococcus aureus-infected New Zealand rabbit osteomyelitis model assessed as body weight at 40 mg/kg, sc administered every 6 hrs for 4 days measured on week 8 postinfection (reference value: […] +/- […] kg); format: organism-based; details: in vivo
[13] = Cmax in New Zealand rabbit osteomyelitis model at 40 mg/kg, sc administered every 6 hrs for 4 days; format: ADME, organism-based, Oryctolagus cuniculus; set-up: dose 40 mg/kg, route subcutaneous; details: in vivo
Staphylococcus aureus [14] = assay: Antimicrobial activity against methicillin-resistant Staphylococcus aureus infected in New Zealand rabbit osteomyelitis model assessed as improvement in rate of bone reconstruction at 40 mg/kg, sc administered every 6 hrs for 4 weeks measured on week 6 postinfection by radiographic analysis; format: functional, organism-based; set-up: dose 40 mg/kg
Staphylococcus aureus [15] = assay: Antimicrobial activity against methicillin-resistant Staphylococcus aureus infected in New Zealand rabbit osteomyelitis model assessed as improvement in extent of bone remodeling at 40 mg/kg, sc administered every 6 hrs for 4 weeks measured on week 6 postinfection by radiographic analysis; format: functional, organism-based; set-up: dose 40 mg/kg
Staphylococcus aureus [16] = assay: Antimicrobial activity against methicillin-resistant Staphylococcus aureus infected in New Zealand rabbit osteomyelitis model assessed as improvement in rate of bone reconstruction at 40 mg/kg, sc administered every 6 hrs for 4 weeks measured on week 8 postinfection by radiographic analysis; format: functional, organism-based; set-up: dose 40 mg/kg
Staphylococcus aureus [17] = assay: Antimicrobial activity against methicillin-resistant Staphylococcus aureus infected in New Zealand rabbit osteomyelitis model assessed as improvement in extent of bone remodeling at 40 mg/kg, sc administered every 6 hrs for 4 weeks measured on week 8 postinfection by radiographic analysis; format: functional, organism-based; set-up: dose 40 mg/kg
[18] = AUC in human at 500 mg, infusion up to 1 hr; details: plasma
[19] = Cmax in human at 500 mg, infusion up to 1 hr; details: in vivo
[20] = Drug level in tibial marrow of New Zealand rabbit at 40 mg/kg, sc administered every 6 hrs for 1 week measured after 3 hrs post last dose; details: read-out: Drug uptake
[21] = Drug level in tibial matrix of New Zealand rabbit at 40 mg/kg, sc administered every 6 hrs for 1 week measured after 3 hrs post last dose; details: read-out: Drug uptake
[22] = Plasma concentration in New Zealand rabbit osteomyelitis model at 40 mg/kg, sc administered every 6 hrs for 1 week measured after 3 hrs post last dose
[23] = Drug level in tibial marrow of New Zealand rabbit osteomyelitis model at 40 mg/kg, sc administered every 6 hrs for 1 week measured after 3 hrs post last dose; details: read-out: Drug uptake
[24] = Drug level in tibial matrix of New Zealand rabbit osteomyelitis model at 40 mg/kg, sc administered every 6 hrs for 1 week measured after 3 hrs post last dose; details: read-out: Drug uptake
Staphylococcus aureus [25] = assay: Antimicrobial activity against methicillin-resistant Staphylococcus aureus infected in New Zealand rabbit osteomyelitis model assessed as improvement in extent of bone remodeling at 40 mg/kg, sc administered every 6 hrs for 4 weeks measured on week 2 posttreatment by radiographic analysis
Staphylococcus aureus [26] = assay: Antimicrobial activity against methicillin-resistant Staphylococcus aureus infected in New Zealand rabbit osteomyelitis model assessed as improvement in rate of bone reconstruction at 40 mg/kg, sc administered every 6 hrs for 4 weeks measured on week 2 posttreatment by radiographic analysis
Staphylococcus aureus [27] = assay: Antimicrobial activity against methicillin-resistant Staphylococcus aureus infected in New Zealand rabbit osteomyelitis model assessed as improvement in rate of bone reconstruction at 30 mg/kg, sc administered every 12 hrs for 4 weeks measured on week 2 postinfection radiographic analysis; format: functional, organism-based; set-up: dose 30 mg/kg
Staphylococcus aureus [28] = assay: Antimicrobial activity against methicillin-resistant Staphylococcus aureus infected in New Zealand rabbit osteomyelitis model assessed as improvement in extent of bone remodeling at 30 mg/kg, sc administered every 12 hrs for 4 weeks measured on week 2 postinfection radiographic analysis; format: functional, organism-based; set-up: dose 30 mg/kg
Staphylococcus aureus [29] = assay: Antimicrobial activity against methicillin-resistant Staphylococcus aureus infected in New Zealand rabbit osteomyelitis model assessed as improvement in rate of bone reconstruction at 30 mg/kg, sc administered every 12 hrs for 4 weeks measured on week 6 postinfection radiographic analysis; format: functional, organism-based; set-up: dose 30 mg/kg
Staphylococcus aureus [30] = assay: Antimicrobial activity against methicillin-resistant Staphylococcus aureus infected in New Zealand rabbit osteomyelitis model assessed as improvement in extent of bone remodeling at 30 mg/kg, sc administered every 12 hrs for 4 weeks measured on week 6 postinfection radiographic analysis; format: functional, organism-based; set-up: dose 30 mg/kg
Staphylococcus aureus [31] = assay: Antimicrobial activity against methicillin-resistant Staphylococcus aureus infected in New Zealand rabbit osteomyelitis model assessed as improvement in rate of bone reconstruction at 30 mg/kg, sc administered every 12 hrs for 4 weeks measured on week 8 postinfection radiographic analysis; format: functional, organism-based; set-up: dose 30 mg/kg
Staphylococcus aureus [32] = assay: (§1) Antimicrobial activity against methicillin-resistant Staphylococcus aureus infected in New Zealand rabbit osteomyelitis model assessed as bacterial count per gram of tibial matrix at 30 mg/kg, sc administered every 12 hrs for 4 weeks measured on week 8 postinfection (reference value: 1.04 +/- 2.63 CFU/g); format: functional; details: route subcutaneous
Staphylococcus aureus [33] = assay: as §1, with “marrow” for “matrix”, “1.12” for “1.04”, “10^9” for “2.63”; format: functional; details: route subcutaneous
[34] = Ratio of AUC to MIC in methicillin-resistant Staphylococcus aureus infected New Zealand rabbit model osteomyelitis at 30 mg/kg, sc administered every 12 hrs for 4 weeks; format: functional; details: route subcutaneous
[35] = AUC in New Zealand rabbit osteomyelitis model at 40 mg/kg, sc administered every 6 hrs for 4 days; format: ADME, organism-based, Oryctolagus cuniculus; set-up: dose 40 mg/kg, route subcutaneous; details: in vivo

## Nc1nc(/C(=N/O)C(=O)N[C@@H]2C(=O)N3C(C(=O)O)=C(/C=C4\CCN([C@@H]5CCNC5)C4=O)CS[C@H]23)ns1 [CEFTOBIPROLE]
Staphylococcus aureus [1]
  MBC: 6.25 µg/mL (≈ 11.7 µM)
  MIC: 0.39 µg/mL (≈ 0.73 µM)
[2]
  Cmax: 23800 ng/mL
[3]
  concentration at 1 h: 2700 ng/mL
[4]
  AUC at 1 h: 65300 ng·h/mL
[5]
  Cmax: 83300 ng/mL
[6]
  AUC at 1 h: 215000 ng·h/mL
[7]
  Cmax: 22100 ng/mL
[8]
  Cmax: 58900 ng/mL
Oryctolagus cuniculus [9]
  Activity: 2.64 kg
Oryctolagus cuniculus [10]
  Activity: 2.73 kg
Oryctolagus cuniculus [11]
  Activity: 2.86 kg
Oryctolagus cuniculus [12]
  Activity: 3.07 kg
[13]
  Cmax: 76800 ng/mL
Staphylococcus aureus [14]
  Activity: Active
Staphylococcus aureus [15]
  Activity: Active
Staphylococcus aureus [16]
  Activity: Active
Staphylococcus aureus [17]
  Activity: Active
[18]
  AUC at 1 h: 116000 ng·h/mL
[19]
  Cmax: 34200 ng/mL
[20]
  concentration at 3 h: 2400 ng/g
[21]
  concentration at 3 h: 300 ng/g
[22]
  concentration at 3 h: 4900 ng/mL
[23]
  concentration at 3 h: 12800 ng/g
[24]
  concentration at 3 h: 900 ng/g
Staphylococcus aureus [25]
  Activity: Active
Staphylococcus aureus [26]
  Activity: Active

## CN[C@H](CC(C)C)C(=O)N[C@H]1C(=O)N[C@@H](CC(N)=O)C(=O)N[C@H]2C(=O)N[C@H]3C(=O)N[C@H](C(=O)N[C@H](C(=O)O)c4cc(O)cc(O)c4-c4cc3ccc4O)[C@H](O)c3ccc(c(Cl)c3)Oc3cc2cc(c3O[C@@H]2O[C@H](CO)[C@@H](O)[C@H](O)[C@H]2O[C@H]2C[C@](C)(N)[C@H](O)[C@H](C)O2)Oc2ccc(cc2Cl)[C@H]1O [VANCOMYCIN]
Staphylococcus aureus [27]
  Activity: Active
Staphylococcus aureus [28]
  Activity: Active
Staphylococcus aureus [29]
  Activity: Active
Staphylococcus aureus [30]
  Activity: Active
Staphylococcus aureus [31]
  Activity: Active
Staphylococcus aureus [1]
  MBC: 6.25 µg/mL (≈ 4.31 µM)
  MIC: 0.78 µg/mL (≈ 0.538 µM)
Staphylococcus aureus [32]
  CFU: 0.84 ×10⁷ /g
Staphylococcus aureus [33]
  CFU: 0.64 ×10⁹ /g
[34]
  RatioAUC/MIC: 148
[13]
  Cmax: 6400 ng/mL
[35]
  AUC: 58000 ng·h/mL
